# Measured values published in US20090068290A1, “BIFEPRUNOX DOSES FOR TREATING SCHIZOPHRENIA” (priority 2006, published 2009).
# Columns and labels:
# Type in all cases: in vivo, human
# [1] = tested on: adult subjects with schizophrenia; test: CGI responder rate, Clinical Study Three; conditions: LOCF
# Excerpt: CLINICAL STUDY THREE: A CGI responder is defined as a subject who is categorized as “very much improved” or “much improved” on the CGI Improvement scale. […] No notable differences were observed between the placebo group and either of the two bifeprunox dose groups.
# [2] = tested on: adult subjects with schizophrenia; test: BPRS total score, Clinical Study Three; conditions: LOCF; for Change from Baseline in BPRS Total Score, Mean (SD) / Change from Baseline in BPRS Total Score, Median: Olanzapine 15 mg, ITT population
# Excerpt: (§2) SECONDARY OBJECTIVES To assess the efficacy of bifeprunox in treating schizophrenia using the Positive Symptom sub-scale score of the PANSS, the Negative Symptom sub-scale score of the PANSS, the General Psychopathology sub-scale of the PANSS, Brief Psychiatric Rating Scale (BPRS) total score derived from the PANSS, BPRS psychosis score derived from the PANSS, the Clinical Global Impression Severity of Illness score (CGI-S), the Clinical Global Impression Improvement score (CGI-I), CGI-I responder rate, PANSS responder rate based on the PANSS total score, Calgary Depression Scale for Schizophrenia (CDSS), and Subject Satisfaction rating.
# (§3) There were four treatment arms in this study, approximately 144 subjects per arm. […] After completing the Single-Blind Placebo Lead-in Period of at least three days, bifeprunox-treated subjects were titrated from 0.25 mg up to 20 mg/day or 30 mg/day according to a standardized titration scheme over a seven- or eight-day period, respectively. When the assigned dose was reached, subjects were maintained at that dose for the remainder of the six week treatment period. […] Subjects were hospitalized (if not already inpatients) after eligibility for study entry was verified, starting from the Screening Visit until at least 10 days after Baseline. Subjects could be hospitalized longer than 10 days if considered medically necessary by the Investigator. Rating scale assessments for efficacy and abnormal movement disorders were done weekly except for Week 5. […] Subject satisfaction with study medication was assessed at Week 6.
# [3] = tested on: adult subjects with schizophrenia; test: PANSS general psychopathology subscale score, Clinical Study Three; conditions: LOCF; for Change from Baseline in PASS General Psychopathology Subscale Score, Mean (SD) / Change from Baseline in PASS General Psychopathology Subscale Score, Median: Olanzapine 15 mg, ITT population
# Excerpt: as §2, §3
# [4] = tested on: adult subjects with schizophrenia; test: PANSS responder rates, Clinical Study One; conditions: Risperidone 6 mg; ITT
# Experimental: (§1) There were five treatment groups in this study. […] Study medication was administered once daily. After Baseline measurements were performed, the titration phase was begun. Bifeprunox treated subjects were titrated up to 5 mg, 10 mg or 20 mg according to a standardized titration schedule (Day 1: 0.125 mg, Day 2: 0.25 mg, Day 3: 0.5 mg, Day 4: 1.0 mg, Day 5: 2.0 mg, Day 6: 5.0 mg, Day 7: 10.0 mg, Day 8: 20 mg). When the assigned dose was reached, subjects were maintained at that dose for the remainder of the six-week treatment period.
# [5] = tested on: adult subjects with schizophrenia; test: CGI Severity of Illness score, Clinical Study One; conditions: Risperidone 6 mg, ITT population
# Experimental: as §1
# The change in the Positive and Negative Symptom Scale (PANSS) total score, from baseline to endpoint, was the primary outcome measure. Secondary efficacy measures included: PANSS positive, PANSS negative, PANSS general psychopathology (GPP) score, PANSS-derived Brief Psychiatric Rating Scale (BPRS) score, Clinical Global Impressions-Severity of Illness (CGI-S), CGI-Improvement (CGI-I) scores, and responder rates. Safety and tolerability evaluations included extrapyramidal symptoms (EPS), weight gain, lipid profile, and serum prolactin.
# [6] = tested on: adult subjects with schizophrenia; test: PANSS negative symptom subscale score, Clinical Study Two; conditions: Risperidone 6 mg, LOCF, ITT
# Experimental: Rating scale assessments were performed weekly, except for week 5, to measure the change from baseline to endpoint of the PANSS total score. Other assessments included: PANSS positive symptom subscale score, PANSS negative symptom subscale score, PANSS general pschopathology subscale score, BPRS total score, BPRS psychosis score, the CGI-S score, the CGI-I score, responder rates based on the PANSS total score, and the Calgary Depression Scale for Schizophrenia (CDSS). […]
# Subjects who completed this study had the option to continue in the long-term. […] Risperidone-treated subjects were titrated from 2 mg to 6 mg daily over a three-day period and were subsequently maintained at 6 mg/day for the remainder of the treatment period. […] Blood samples were also obtained at Screening/Baseline, Week 3, and Week 6 for clinical laboratory assessments.
smiles,measurement,setting,value
"Cc1cc2c(s1)Nc1ccccc1N=C2N1CCN(C)CC1 [Olanzapine, olanzapine, reference compound]","CGI Responder No, %","[1]; 15 mg, Week 6/Endpoint",54%
same,"CGI Responder Yes, %","[1]; 15 mg, Week 6/Endpoint",46%
same,CGI-I responder rate (subjects much or very much improved) at Endpoint,[1]; olanzapine 15 mg,46%
same,"Change from Baseline in BPRS Total Score, Mean (SD)",[2]; Week 1,−5.6 (6.7)
same,"Change from Baseline in BPRS Total Score, Median",[2]; Week 1,−4
same,"Change from Baseline in BPRS Total Score, Mean (SD)",[2]; Week 2,−8.9 (8.2)
same,"Change from Baseline in BPRS Total Score, Median",[2]; Week 2,−8
same,"Change from Baseline in BPRS Total Score, Mean (SD)",[2]; Week 3,−11.4 (9.3)
same,"Change from Baseline in BPRS Total Score, Median",[2]; Week 3,−11
same,"Change from Baseline in BPRS Total Score, Mean (SD)",[2]; Week 4,−12.0 (9.8)
same,"Change from Baseline in BPRS Total Score, Median",[2]; Week 4,−11
same,"Change from Baseline in BPRS Total Score, Mean (SD)",[2]; Week 6/Endpoint,−13.2 (10.7)
same,"Change from Baseline in BPRS Total Score, Median",[2]; Week 6/Endpoint,−12
same,mean change (SD) from Baseline to Endpoint in BPRS total score,"[2]; olanzapine 15 mg, ITT",−13.2 (10.7)
same,"Change from Baseline in PASS General Psychopathology Subscale Score, Mean (SD)",[3]; Week 1,−4.5 (6.2)
same,"Change from Baseline in PASS General Psychopathology Subscale Score, Median",[3]; Week 1,−3
same,"Change from Baseline in PASS General Psychopathology Subscale Score, Mean (SD)",[3]; Week 2,−7.2 (7.8)
same,"Change from Baseline in PASS General Psychopathology Subscale Score, Median",[3]; Week 2,−6
same,"Change from Baseline in PASS General Psychopathology Subscale Score, Mean (SD)",[3]; Week 3,−9.3 (8.3)
same,"Change from Baseline in PASS General Psychopathology Subscale Score, Median",[3]; Week 3,−8
same,"Change from Baseline in PASS General Psychopathology Subscale Score, Mean (SD)",[3]; Week 4,−9.6 (8.6)
same,"Change from Baseline in PASS General Psychopathology Subscale Score, Median",[3]; Week 4,−9
same,"Change from Baseline in PASS General Psychopathology Subscale Score, Mean (SD)",[3]; Week 6/Endpoint,−10.5 (9.4)
same,"Change from Baseline in PASS General Psychopathology Subscale Score, Median",[3]; Week 6/Endpoint,−9
same,mean change (SD) from Baseline to Endpoint in PANSS general psychopathology subscale score,"[3]; olanzapine 15 mg, ITT",−10.5 (9.4)
"Cc1nc2n(c(=O)c1CCN1CCC(c3noc4cc(F)ccc34)CC1)CCCC2 [Risperidone, risperidone, reference compound]","PANSS Responder at Endpoint (LOCF), 20% Definition",[4],46 (40) n (%)
same,"PANSS Responder at Endpoint (LOCF), 25% Definition",[4],34 (29) n (%)
same,"PANSS Responder at Endpoint (LOCF), 30% Definition",[4],26 (22) n (%)
same,"PANSS Responder at Endpoint (LOCF), 35% Definition",[4],15 (13) n (%)
same,"Change from Baseline in CGI Severity of Illness Score, Mean (S.D.)",[5]; Endpoint LOCF,−0.76 (0.93)
same,"Change from Baseline in CGI Severity of Illness Score, Median",[5]; Endpoint LOCF,0.0
same,"Change from Baseline in CGI Severity of Illness Score, Mean (S.D.)","[5]; Week 1, LOCF",−0.37 (0.68)
same,"Change from Baseline in CGI Severity of Illness Score, Median","[5]; Week 1, LOCF",0.0
same,"Change from Baseline in CGI Severity of Illness Score, Mean (S.D.)","[5]; Week 2, LOCF",−0.60 (0.83)
same,"Change from Baseline in CGI Severity of Illness Score, Median","[5]; Week 2, LOCF",0.0
same,"Change from Baseline in CGI Severity of Illness Score, Mean (S.D.)","[5]; Week 3, LOCF",−0.70 (0.81)
same,"Change from Baseline in CGI Severity of Illness Score, Median","[5]; Week 3, LOCF",0.0
same,"Change from Baseline in CGI Severity of Illness Score, Mean (S.D.)","[5]; Week 4, LOCF",−0.69 (0.85)
same,"Change from Baseline in CGI Severity of Illness Score, Median","[5]; Week 4, LOCF",0.0
same,"Change from Baseline in PANSS Negative Symptom Subscale Score, Mean (SD)",[6]; Week 1,−1.5 (3.0)
same,"Change from Baseline in PANSS Negative Symptom Subscale Score, Median",[6]; Week 1,−2
same,"Change from Baseline in PANSS Negative Symptom Subscale Score, Mean (SD)",[6]; Week 2,−2.9 (4.3)
same,"Change from Baseline in PANSS Negative Symptom Subscale Score, Median",[6]; Week 2,−3
same,"Change from Baseline in PANSS Negative Symptom Subscale Score, Mean (SD)",[6]; Week 3,−3.3 (4.9)
same,"Change from Baseline in PANSS Negative Symptom Subscale Score, Median",[6]; Week 3,−3
same,"Change from Baseline in PANSS Negative Symptom Subscale Score, Mean (SD)",[6]; Week 4,−3.8 (5.5)
same,"Change from Baseline in PANSS Negative Symptom Subscale Score, Median",[6]; Week 4,−4
same,"Change from Baseline in PANSS Negative Symptom Subscale Score, Mean (SD)",[6]; Week 6/Endpoint,−3.8 (5.5)
same,"Change from Baseline in PANSS Negative Symptom Subscale Score, Median",[6]; Week 6/Endpoint,−3
